These results are taken from PMC4741719, “Acquisition of a single EZH2 D1 domain mutation confers acquired resistance to EZH2-targeted inhibitors” (Oncotarget, 2015).

Test [1] has as its system DLBCL and rhabdoid INI1-deficient patients. Set-up: method as in earlier work. The settings on record: phase 1 clinical trial, monotherapy; cited from earlier work.
For test [2], the system named is Pfeiffer cells (Parental). Kind of test: Viability assay (Cell-Titer-Glo, 6 days), parental Pfeiffer cells. The settings on record: Homo sapiens. The format is cell-based.
Test [3] has as its system Pfeiffer cells stably-expressing Y111D/A677G EZH2 mutant. Put plainly: Viability assay, Pfeiffer cells stably-expressing Y111D/A677G EZH2. The settings on record: Homo sapiens, read-out: IC50 cell viability.
The test system of test [4] is H3K27me3 in E-200 Pfeiffer cells. Put plainly: Cellular H3K27me3 AlphaLISA, E-200 Pfeiffer cells. Format: cell-based. The settings on record: Homo sapiens; Pfeiffer E-200; Figure 3B. The method, then:
Cells were plated at 500 cells/well in 10% DMEM, 50 uL/well in 384 well plates. […] DMSO (0.1%) was used as a vehicle control. Plates were incubated for 72 hours at 37°C. […] Plates were read using AlphaLISA protocol on Envision (Perkin Elmer). […] Pfeiffer cells were treated overnight with 100 μg/mL of N-ethyl-N-nitrosourea (ENU; Sigma Aldrich, St. […] After 7 days, cells were dosed again with fresh compound and grown until outgrowth (3 to 4 weeks). […] Ion semiconductor sequencing (Ion Torrent) and single molecule real time sequencing (PacBio) were performed at Molecular MD and Expression analysis (Quintiles), respectively.

In test [5] the test system is H3K27me3 in Pfeiffer cells (Parental). Put plainly: Cellular H3K27me3 AlphaLISA, parental Pfeiffer cells. Format: cell-based. The conditions noted are these: Homo sapiens, Figure 3B. Here is the method: Cells were plated at 500 cells/well in 10% DMEM, 50 uL/well in 384 well plates. […] DMSO (0.1%) was used as a vehicle control. Plates were incubated for 72 hours at 37°C. […] Plates were read using AlphaLISA protocol on Envision (Perkin Elmer).
(In general: Alpha assays give light when donor and acceptor beads are brought close together.)

The next test deals with E-100 Pfeiffer cells. Put plainly: Viability assay, EPZ-6438-resistant E-100 Pfeiffer cells. Format: cell-based. The settings on record: Homo sapiens, read-out: IC50 cell viability.
The test system of test [6] is Pfeiffer cells stably expressing Y111D/A677G/H689A. Put plainly: Viability assay, Pfeiffer cells stably expressing Y111D/A677G/H689A EZH2. The conditions noted are these: Homo sapiens, read-out: IC50 cell viability.
Test [7] has as its system H3K27me3 in Pfeiffer cells stably-expressing Y111D/A677G EZH2 mutant. Put plainly: Cellular H3K27me3 AlphaLISA, Pfeiffer cells stably-expressing Y111D/A677G EZH2. The settings on record: Homo sapiens, read-out: IC50 H3K27me3.
Another test has as its system E-200 Pfeiffer cells. Put plainly: Viability assay, EPZ-6438-resistant E-200 Pfeiffer cells. The format is cell-based. The settings on record: Homo sapiens, read-out: IC50 cell viability.
Test [8] deals with Pfeiffer cells stably-expressing Y111D/Y641F EZH2 mutant. Put plainly: Viability assay, Pfeiffer cells stably-expressing Y111D/Y641F EZH2.

Where two headings read alike, the source gives them in different places.

Turning to `CCN(c1cc(-c2ccc(CN3CCOCC3)cc2)cc(C(=O)NCc2c(C)cc(C)[nH]c2=O)c1C)C1CCOCC1` [EPZ-6438], in [1], the clinical response entry is listed as “durable objective responses”.
With `CC[C@H](C)n1cc(C)c2c(C(=O)NCc3c(C)cc(C)[nH]c3=O)cc(-c3ccc(N4CCNCC4)nc3)cc21` [GSK126], the half-inhibitory concentration (IC50) in test [2] (Parental Pfeiffer, Figure 1C, three independent experiments) was 0.023 ± 0.005 µM; in test [2] (Pfeiffer Parental, Figure 3C) it was 0.033 ± 0.007 µM; in test [2] (Pfeiffer Parental, Figure 4B) it was 0.03 ± 0.005 µM; in [3] it was 2.67 ± 1.37 µM; in test [4], above 10 µM; in test [5] it was 0.036 ± 0.027 µM. Moreover, the IC50 with E-100 Pfeiffer cells (E-100, Unwash, Figure 1E) was found to be 4.03 ± 0.37 µM; with E-100 Pfeiffer cells (E-100, Wash 8 weeks (drug withdrawal), Figure 1E), 1.22 ± 0.089 µM; with E-100 Pfeiffer cells (E-100 Pfeiffer, Figure 1C) it was 3.96 ± 1.04 µM; in test [6], 0.025 ± 0.009 µM; in [7] it was 5 ± 1.59 µM; in the test on E-200 Pfeiffer cells (E-200, Unwash, Figure 1E), 3.15 ± 0.508 µM. In addition, the half-inhibitory concentration (IC50) in the test with E-200 Pfeiffer cells (E-200, Wash 8 weeks (drug withdrawal), Figure 1E) stood at 2.01 ± 1.56 µM; in the test with E-200 Pfeiffer cells (E-200 Pfeiffer, Figure 1C), 3.98 ± 0.994 µM; in test [8] (Homo sapiens, Pfeiffer, read-out: IC50 cell viability), 0.111 ± 0.035 µM. The “increase in IC50 values” in test [8] (Y111D/Y641F, both growth and H3K27 tri-methylation) is 3–4 fold.

The IC50 is the concentration needed to halve the response being measured.
